This note sets out measurements from patent US9090600B2, “Fungicidal 4-substituted-3-{phenyl[(heterocyclylmethoxy)imino]methyl}-1,2,4-oxadizol-5(4H)-one derivatives” (BAYER INTELLECTUAL PROPERTY GMBH, priority 2011, dated 2015).

Each structure is given as a SMILES string. Marks after values point to notes of the source that are not given here.

For this series the following is noted: pH 2.7.
The LogP is the decadic logarithm of the partition coefficient of the neutral form, usually between octanol and water. A low value points to a more hydrophilic compound. For `CC(OCc1ccccc1)C(=O)Nc1cccc(CO/N=C(/c2ccccc2)c2noc(=O)n2C)n1` (centres unmarked) [Example 156], the LogP was 4.15 [a].

On to `COc1ccc(/C(=N/OCc2cccc(N)n2)c2noc(=O)n2C)cc1` [Example 157], for which the LogP was 1.35 [a].

Take `Cn1c(/C(=N\OCc2csc(NC(=O)COc3ccccc3Br)n2)c2ccccc2)noc1=O` [Example 159]: the LogP was 3.89 [a].

In the case of `CCCCC(C)(C)C(=O)Nc1nc(CO/N=C(/c2ccccc2)c2noc(=O)n2C)cs1` [Example 160], the LogP was 4.48 [a].

Regarding `Cn1c(/C(=N\OCc2cccc(NC(=O)SC(C)(C)C)n2)c2ccccc2)noc1=O` [Example 162], the LogP was 4.39 [a].

With `Cn1c(/C(=N\OCc2csc(NC(=O)COc3ccc(Cl)cc3)n2)c2ccccc2)noc1=O` [Example 164], the LogP was 3.85 [a].

Consider `CCCCC(=O)Nc1nc(CO/N=C(/c2ccc(C)cc2)c2noc(=O)n2C)cs1` [Example 169], for which the LogP is 3.7 [a].

For `Cn1c(/C(=N\OCc2cccc(NC(=O)c3ccc(I)cc3)n2)c2ccccc2)noc1=O` [Example 174], the LogP was 4.29 [a].

On to `CC(Oc1cccc(Br)c1)C(=O)Nc1cccc(CO/N=C(/c2ccccc2)c2noc(=O)n2C)n1` (centres unmarked) [Example 179], for which the LogP is 4.46 [a].

As to `COc1ccccc1C(=O)Nc1cccc(CO/N=C(/c2ccccc2)c2noc(=O)n2C)n1` [Example 181], the LogP is 3.87 [a].

For `CCCCOC(=S)Nc1cccc(CO/N=C(/c2ccccc2)c2noc(=O)n2C)n1` [Example 183], the LogP was 4.53 [a].

As to `CCC1(C(=O)Nc2cccc(CO/N=C(/c3ccccc3)c3noc(=O)n3C)n2)C(C)C1(Cl)Cl` (centres unmarked) [Example 189], the LogP was 4.35 [a].

Turning to `CC(C)(C)OC(=O)Nc1cccc(CO/N=C(\c2noc(=O)[nH]2)c2ccccc2F)n1` [Example 193], the LogP was 3.68 [a].

On to `Cn1c(/C(=N\OCc2csc(NC(=O)COCc3ccccc3)n2)c2ccccc2)noc1=O` [Example 194], for which the LogP was 3.6 [a].

For the molecule `Cn1c(/C(=N\OCc2cccc(NC(=O)Cc3ccc(Cl)cc3)n2)c2ccccc2)noc1=O` [Example 196], the LogP was 3.92 [a].

With `Cn1c(/C(=N\OCc2csc(NC(=O)Cc3ccccc3)n2)c2cccc(F)c2)noc1=O` [Example 203], the LogP is 3.46 [a].

Consider `CC(Oc1ccc(Br)cc1)C(=O)Nc1cccc(CO/N=C(/c2ccccc2)c2noc(=O)n2C)n1` (centres unmarked) [Example 204], for which the LogP was 4.46 [a].

In the case of `Cn1c(/C(=N\OCc2cccc(NC(=O)OCCCC(F)(F)F)n2)c2ccccc2)noc1=O` [Example 205], the LogP was 3.85 [a].

`Cc1ccccc1OCC(=O)Nc1nc(CO/N=C(/c2ccccc2)c2noc(=O)n2C)cs1` [Example 213]: the LogP was 3.85 [a].

On to `CC(C)(C)OC(=O)Nc1cccc(CO/N=C(/c2ccc(F)cc2)c2noc(=O)[nH]2)n1` [Example 214], for which the LogP is 3.78 [a].

As for `COc1ccc(C(=O)Nc2cccc(CO/N=C(/c3ccccc3)c3noc(=O)n3C)n2)cc1` [Example 217], the LogP was 3.53 [a].

Consider `Cn1c(/C(=N\OCc2csc(NC(=O)C(F)(F)Oc3ccccc3)n2)c2ccccc2)noc1=O` [Example 220], for which the LogP is 3.89 [a].

On to `Cn1c(/C(=N\OCc2cccc(NC(=O)C3(c4ccc(Cl)cc4Cl)CC3)n2)c2ccccc2)noc1=O` [Example 222], for which the LogP is 4.96 [a].

As to `CC(Oc1ccccc1Cl)C(=O)Nc1cccc(CO/N=C(/c2ccccc2)c2noc(=O)n2C)n1` (centres unmarked) [Example 231], the LogP is 4.41 [a].

On to `Cn1c(/C(=N\OCc2csc(NC(=O)C3COc4ccccc4O3)n2)c2cccc(F)c2)noc1=O` (centres unmarked) [Example 234], for which the LogP was 3.7 [a].

In the case of `Cn1c(/C(=N\OCc2cccc(NC(=O)OCCc3ccc(Br)cc3)n2)c2ccccc2)noc1=O` [Example 238], the LogP is 4.63 [a].

Take `CC(C)CSC(=O)Nc1cccc(CO/N=C(/c2ccccc2)c2noc(=O)n2C)n1` [Example 241]: the LogP is 4.39 [a].

For `C#CC(C)OC(=O)Nc1cccc(CO/N=C(/c2ccccc2)c2noc(=O)n2C)n1` (centres unmarked) [Example 242], the LogP is 3.41 [a].

As to `Cn1c(C(=NOCc2cccc(NC(=O)OC(C)(C)C)n2)c2cccc(F)c2F)noc1=O` [Example 249], the LogP is 3.94 [a].

Turning to `Cc1ccc(C(=NOCc2csc(NC(=O)Cc3ccccc3)n2)c2noc(=O)n2C)cc1` [Example 252], the LogP was 3.65 [a].

As for `Cn1c(C(=NOCc2cccc(NC(=O)OC(C)(C)C)n2)c2cccc(F)c2F)noc1=O` [Example 254], the LogP was 4.01 [a].

Regarding `Cn1c(C(=NOCc2cccc(N)n2)c2ccc(F)cc2)noc1=O` [Example 259], the LogP was 1.41 [a].

Take `CC(Oc1ccc(Cl)cc1)C(=O)Nc1cccc(CON=C(c2ccccc2)c2noc(=O)n2C)n1` (centres unmarked) [Example 260]: the LogP was 4.35 [a].

Turning to `Cn1c(C(=NOCc2cccc(NC(=O)COc3ccccc3Br)n2)c2ccccc2)noc1=O` [Example 269], the LogP was 4.25 [a].

Regarding `CC(C)CC(C)OC(=O)Nc1cccc(CO/N=C(/c2ccccc2)c2noc(=O)n2C)n1` (centres unmarked) [Example 273], the LogP was 4.68 [a].

Turning to `Cn1c(/C(=N\OCc2cccc(NC(=O)COc3ccc(Cl)cc3Cl)n2)c2ccccc2)noc1=O` [Example 274], the LogP was 4.61 [a].

For the molecule `CC(Oc1ccccc1Br)C(=O)Nc1cccc(CO/N=C(/c2ccccc2)c2noc(=O)n2C)n1` (centres unmarked) [Example 275], the LogP is 4.53 [a].

As to `Cc1cc(Cl)ccc1OCCCC(=O)Nc1cccc(CO/N=C(/c2ccccc2)c2noc(=O)n2C)n1` [Example 277], the LogP was 4.73 [a].

In the case of `CCCOC(=S)Nc1cccc(CO/N=C(/c2ccccc2)c2noc(=O)n2C)n1` [Example 283], the LogP was 4.11 [a].

For the molecule `Cc1ccc(OC(C)C(=O)Nc2cccc(CO/N=C(/c3ccccc3)c3noc(=O)n3C)n2)cc1` (centres unmarked) [Example 287], the LogP is 4.35 [a].

In the case of `Cn1c(/C(=N\OCc2cccc(NC(=O)OCCCC(F)(F)C(F)(F)F)n2)c2ccccc2)noc1=O` [Example 293], the LogP is 4.29 [a].

As to `Cn1c(/C(=N\OCc2cccc(NC(=O)c3ccccc3Oc3ccccc3)n2)c2ccccc2)noc1=O` [Example 294], the log partition coefficient (LogP) is 4.76 [a].

Take `Cn1c(/C(=N\OCc2cccc(NC(=O)OCCc3ccccc3Br)n2)c2ccccc2)noc1=O` [Example 298]: the LogP is 4.66 [a].

Take `CC(OC(=O)Nc1cccc(CO/N=C(/c2ccccc2)c2noc(=O)n2C)n1)C(C)(C)C` (centres unmarked) [Example 305]: the lipophilicity (LogP) was 4.56 [a].

On to `Cn1c(/C(=N\OCc2cccc(NC(=O)COc3cccc(F)c3)n2)c2ccccc2)noc1=O` [Example 311], for which the LogP is 3.78 [a].

Regarding `Cn1c(/C(=N\OCc2csc(NC(=O)COc3cccc(Br)c3)n2)c2ccccc2)noc1=O` [Example 314], the LogP is 3.94 [a].

`Cn1c(/C(=N\OCc2csc(NC(=O)COc3ccccc3)n2)c2ccccc2)noc1=O` [Example 315]: the LogP was 3.51 [a].

`Cc1ccc(/C(=N/OCc2csc(NC(=O)C(C)Oc3ccccc3)n2)c2noc(=O)n2C)cc1` (centres unmarked) [Example 319]: the LogP was 3.99 [a].

Turning to `CCCCSC(=O)Nc1cccc(CO/N=C(/c2ccccc2)c2noc(=O)n2C)n1` [Example 320], the LogP was 4.41 [a].

As for `Cc1ccc(/C(=N/OCc2csc(N)n2)c2noc(=O)n2C)cc1` [Example 326], the LogP was 1.82 [a].

Regarding `COc1ccc(/C(=N/OCc2cccc(NC(=O)OC(C)(C)C)n2)c2noc(=O)[nH]2)cc1` [Example 333], the LogP was 3.69 [a].

Regarding `Cc1cccc(OCC(=O)Nc2cccc(CO/N=C(/c3ccccc3)c3noc(=O)n3C)n2)c1` [Example 334], the LogP was 4.07 [a].

For the molecule `CC(Oc1ccccc1)C(=O)Nc1nc(CO/N=C(/c2cccc(F)c2)c2noc(=O)n2C)cs1` (centres unmarked) [Example 338], the LogP was 3.76 [a].

Turning to `Cc1ccc(C(=NOCc2csc(NC(=O)OC3CCCCC3)n2)c2noc(=O)n2C)cc1` [Example 339], the LogP was 4.48 [a].

Consider `Cn1c(/C(=N\OCc2cccc(NC(=O)OCCc3ccc(Cl)cc3)n2)c2ccccc2)noc1=O` [Example 349], for which the LogP was 4.53 [a].

For the molecule `CCCCC(C)(C)OC(=O)Nc1cccc(CO/N=C(/c2ccccc2)c2noc(=O)n2C)n1` [Example 353], the LogP is 5.1 [a].

`Cc1cccc(OCC(=O)Nc2nc(CO/N=C(/c3ccccc3)c3noc(=O)n3C)cs2)c1` [Example 356]: the LogP is 3.8 [a].

For the molecule `Cn1c(/C(=N\OCc2cccc(NC(=O)OCCc3cccc(Cl)c3)n2)c2ccccc2)noc1=O` [Example 359], the lipophilicity (LogP) is 4.51 [a].

For `Cc1ccc(C(=NOCc2csc(N(C)C=O)n2)c2noc(=O)n2C)cc1` [Example 360], the log partition coefficient (LogP) is 3.06 [a].

Turning to `Cn1c(/C(=N\OCc2csc(NC(=O)COc3cccc(Cl)c3)n2)c2ccccc2)noc1=O` [Example 368], the LogP was 3.87 [a].

Turning to `CCCCC(=O)Nc1nc(CO/N=C(/c2cccc(F)c2)c2noc(=O)n2C)cs1` [Example 370], the LogP was 3.48 [a].

Turning to `Cn1c(/C(=N\OCc2cccc(NC(=O)COc3cccc(Br)c3)n2)c2ccccc2)noc1=O` [Example 382], the LogP is 4.2 [a].

`CCCCSC(=S)Nc1cccc(CO/N=C(/c2ccccc2)c2noc(=O)n2C)n1` [Example 385]: the log partition coefficient (LogP) is 4.8 [a].

Consider `Cc1cccc(/C(=N/OCc2cccc(NC(=O)c3cccc(F)c3)n2)c2noc(=O)n2C)c1` [Example 391], for which the LogP was 3.99 [a].

For `COc1ccc(C(=O)Nc2nc(CO/N=C(/c3ccccc3)c3noc(=O)n3C)cs2)cc1` [Example 393], the log partition coefficient (LogP) is 3.48 [a].

In the case of `Cc1ccc(C2(C(=O)Nc3cccc(CO/N=C(/c4ccccc4)c4noc(=O)n4C)n3)CC2)cc1` [Example 397], the LogP is 4.76 [a].

Consider `Cc1ccccc1OC(C)C(=O)Nc1cccc(CO/N=C(/c2ccccc2)c2noc(=O)n2C)n1` (centres unmarked) [Example 398], for which the log partition coefficient (LogP) is 4.46 [a].

Take `COc1cccc(C(=NOCc2cccc(NC(=O)c3cccc(F)c3)n2)c2noc(=O)n2C)c1` [Example 399]: the LogP is 3.72 [a].
